Measured values from ChEMBL document CHEMBL3351451, “In search of next generation antimalarials” (Bioorg Med Chem Lett, 2014).
Calls of active or inactive are those of the source. No cut-off for these calls is given here.

Legend:
Plasmodium berghei [1] = assay: Antimalarial activity against Plasmodium berghei infected in mouse assessed as cure at 40 mg/kg measured at 60 days post-infection; format: functional, organism-based; design: dose 40 mg/kg
Plasmodium berghei [2] = assay: Antimalarial activity against Plasmodium berghei infected in mouse assessed as cure at 80 mg/kg measured at 60 days post-infection; format: functional, organism-based; design: dose 80 mg/kg
Plasmodium berghei [3] = assay: Antimalarial activity against Plasmodium berghei infected in mouse assessed as cure at 160 mg/kg measured at 60 days post-infection; format: functional, organism-based; design: dose 160 mg/kg
Plasmodium berghei [4] = assay: Antimalarial activity against Plasmodium berghei infected in mouse assessed as survival time at 5 mg/kg (reference value: 6.1 days); format: functional
Plasmodium cynomolgi [5] = assay: Antimalarial activity against Plasmodium cynomolgi infected in rhesus monkey assessed as curative activity at 0.316 mg/kg administered daily for 7 days; format: functional, organism-based; design: dose 0.316 mg/kg
Plasmodium cynomolgi [6] = assay: Antimalarial activity against Plasmodium cynomolgi infected in rhesus monkey assessed as curative activity at 1 mg/kg administered daily for 7 days; format: functional, organism-based; design: dose 1 mg/kg
Plasmodium cynomolgi [7] = assay: Antimalarial activity against Plasmodium cynomolgi infected in rhesus monkey assessed as curative activity at 0.1 mg/kg administered daily for 7 days; format: functional, organism-based; design: dose 0.1 mg/kg
Plasmodium berghei [8] = assay: Antimalarial activity against Plasmodium berghei infected in mouse assessed as cure at 320 mg/kg measured at 60 days post-infection; format: functional, organism-based; design: dose 320 mg/kg
Plasmodium berghei [9] = assay: Antimalarial activity against Plasmodium berghei infected in mouse assessed as cure at 640 mg/kg measured at 60 days post-infection; format: functional, organism-based; design: dose 640 mg/kg
Plasmodium berghei [10] = assay: Antimalarial activity against Plasmodium berghei infected in mouse assessed as survival time at 20 mg/kg (reference value: 6.1 days); format: functional
Plasmodium berghei [11] = assay: Antimalarial activity against Plasmodium berghei infected in mouse assessed as cure at 10 mg/kg measured at 60 days post-infection; format: functional, organism-based; design: dose 10 mg/kg
Mus musculus [12] = assay: Toxicity in mouse infected with Plasmodium berghei at 320 mg/kg; format: organism-based; design: dose 320 mg/kg; conditions: in vivo
Mus musculus [13] = assay: Toxicity in mouse infected with Plasmodium berghei at 640 mg/kg; format: organism-based; design: dose 640 mg/kg; conditions: in vivo
Mus musculus [14] = assay: Toxicity in mouse infected with Plasmodium berghei at 160 mg/kg; format: organism-based; design: dose 160 mg/kg; conditions: in vivo
Plasmodium berghei [15] = assay: Antimalarial activity against Plasmodium berghei infected in mouse assessed as cure at 20 mg/kg measured at 60 days post-infection; format: functional, organism-based; design: dose 20 mg/kg
Plasmodium berghei [16] = assay: Antimalarial activity against Plasmodium berghei infected in mouse assessed as cure at 5 mg/kg measured at 60 days post-infection; format: functional, organism-based; design: dose 5 mg/kg

COc1cc(NC(C)CCCN)c2nccc(C)c2c1OCCCCCc1ccccc1.O=C(O)/C=C/C(=O)O (configuration not stated)
Activity (Plasmodium berghei [1]): Active | Activity (Plasmodium berghei [2]): Active | Activity (Plasmodium berghei [3]): Active | MST (Plasmodium berghei [4]): 7.9 days | Activity (Plasmodium cynomolgi [5]): Active | Activity (Plasmodium cynomolgi [6]): Active

COc1cc(NC(C)CCCN)c2nccc(C)c2c1OCCCCCCc1ccccc1.O=C(O)/C=C/C(=O)O (configuration not stated)
MST (Plasmodium berghei [4]): 5.9 days | Activity (Plasmodium cynomolgi [7]): inactive | Activity (Plasmodium cynomolgi [5]): Active | Activity (Plasmodium cynomolgi [6]): Active

COc1cc(NC(C)CCCN)c2nccc(C)c2c1OCCCCc1ccccc1.O=C(O)/C=C/C(=O)O (configuration not stated)
Activity (Plasmodium berghei [2]): Active | MST (Plasmodium berghei [4]): 7.6 days | Activity (Plasmodium cynomolgi [7]): inactive | Activity (Plasmodium cynomolgi [6]): Active

COc1cc(NC(C)CCCN)c2nccc(C)c2c1OCCCCCCCCCc1ccccc1.O=C(O)/C=C/C(=O)O (configuration not stated)
Activity (Plasmodium berghei [3]): Active | Activity (Plasmodium berghei [8]): Active | Activity (Plasmodium berghei [9]): Active | MST (Plasmodium berghei [10]): 8.5 days

COc1cc(NC(C)CCCN)c2nccc(C)c2c1OCCCCCCCCc1ccccc1.O=C(O)/C=C/C(=O)O (configuration not stated)
Activity (Plasmodium berghei [1]): Active | Activity (Plasmodium berghei [2]): Active | Activity (Plasmodium berghei [3]): Active | Activity (Plasmodium berghei [8]): Active | Activity (Plasmodium berghei [9]): Active | MST (Plasmodium berghei [4]): 5.7 days

COc1cc(NC(C)CCCN)c2nccc(C)c2c1OCCCCCc1ccco1.O=C(O)/C=C/C(=O)O (configuration not stated)
Activity (Plasmodium berghei [1]): Active | Activity (Plasmodium berghei [2]): Active | Activity (Plasmodium berghei [3]): Active | MST (Plasmodium berghei [4]): 7.7 days

COc1cc(NC(C)CCCN)c2nccc(C)c2c1OCCCc1ccccc1.O=C(O)/C=C/C(=O)O (configuration not stated)
Activity (Plasmodium berghei [11]): Active | Activity (Mus musculus [12]): Toxic | Activity (Mus musculus [13]): Toxic | Activity (Plasmodium cynomolgi [6]): Active | Activity (Mus musculus [14]): Toxic

COc1cc(NC(C)CCCN)c2nccc(C)c2c1OCCCCCc1cccs1.O=C(O)/C=C/C(=O)O (configuration not stated)
Activity (Plasmodium berghei [15]): Active | Activity (Plasmodium berghei [1]): Active | Activity (Plasmodium berghei [2]): Active | MST (Plasmodium berghei [4]): 6.6 days

CCCCCOc1c(OC)cc(NC(C)CCCN)c2nccc(C)c12 (configuration not stated)
Activity (Plasmodium berghei [16]): Active | Activity (Plasmodium berghei [11]): Active | Activity (Mus musculus [12]): Toxic | Activity (Mus musculus [13]): Toxic | Activity (Plasmodium cynomolgi [6]): Active

COc1cc(NC(C)CCCN)c2nccc(C)c2c1OCCCCCCCc1ccccc1 (configuration not stated)
Activity (Plasmodium berghei [11]): Active | Activity (Plasmodium berghei [15]): Active | Activity (Plasmodium berghei [1]): Active | Activity (Plasmodium berghei [2]): Active | Activity (Plasmodium berghei [3]): Active | Activity (Plasmodium berghei [8]): Active | Activity (Plasmodium berghei [9]): Active | Activity (Plasmodium cynomolgi [7]): inactive | Activity (Plasmodium cynomolgi [5]): inactive | Activity (Plasmodium cynomolgi [6]): Active
